From ChEMBL document CHEMBL1201861, “Genomics of Drug Sensitity in Cancer screening data, Wellcome Trust Sanger Institute”

Columns and labels:
NCI-H64 = assay: cells; assay type: functional, cell-based; conditions: Homo sapiens
Description: SANGER: Inhibition of human NCI-H64 cell growth in a cell viability assay.

CESS = assay: SANGER: Inhibition of human CESS cell growth in a cell viability assay.; assay type: functional, cell-based
K052 = assay: cells; assay type: functional, cell-based; conditions: Homo sapiens
Description: SANGER: Inhibition of human K052 cell growth in a cell viability assay.

PF-382 = assay: cells; assay type: functional, cell-based; conditions: Homo sapiens
Description: SANGER: Inhibition of human PF-382 cell growth in a cell viability assay.

TE-441-T = assay: cells; assay type: functional, cell-based; conditions: Homo sapiens
Description: SANGER: Inhibition of human TE-441-T cell growth in a cell viability assay.

NCI-H2081 = assay: cells; assay type: functional, cell-based; conditions: Homo sapiens
Description: SANGER: Inhibition of human NCI-H2081 cell growth in a cell viability assay.

SK-MM-2 = assay: cells; assay type: functional, cell-based; conditions: Homo sapiens
Description: SANGER: Inhibition of human SK-MM-2 cell growth in a cell viability assay.

YT = assay: cells; assay type: functional, cell-based; conditions: Homo sapiens
Description: SANGER: Inhibition of human YT cell growth in a cell viability assay.

SR = assay: cells; assay type: functional, cell-based; conditions: Homo sapiens
Description: SANGER: Inhibition of human SR cell growth in a cell viability assay.

LU-165 = assay: cells; assay type: functional, cell-based; conditions: Homo sapiens
Description: SANGER: Inhibition of human LU-165 cell growth in a cell viability assay.

JIYOYE = assay: cells; assay type: functional, cell-based; conditions: Homo sapiens
Description: SANGER: Inhibition of human JiyoyeP-2003 cell growth in a cell viability assay.

MDA-MB-134-VI = assay: cells; assay type: functional, cell-based; conditions: Homo sapiens
Description: SANGER: Inhibition of human MDA-MB-134-VI cell growth in a cell viability assay.

SNU-16 = assay: cells; assay type: functional, cell-based; conditions: Homo sapiens
Description: SANGER: Inhibition of human NCI-SNU-16 cell growth in a cell viability assay.

BL-41 = assay: cells; assay type: functional, cell-based; conditions: Homo sapiens
Description: SANGER: Inhibition of human BL-41 cell growth in a cell viability assay.

DMS-153 = assay: cells; assay type: functional, cell-based; conditions: Homo sapiens
Description: SANGER: Inhibition of human DMS-153 cell growth in a cell viability assay.

NCI-H187 = assay: cells; assay type: functional, cell-based; conditions: Homo sapiens
Description: SANGER: Inhibition of human NCI-H187 cell growth in a cell viability assay.

LC4-1 = assay: cells; assay type: functional, cell-based; conditions: Homo sapiens
Description: SANGER: Inhibition of human LC4-1 cell growth in a cell viability assay.

NCI-H2171 = assay: cells; assay type: functional, cell-based; conditions: Homo sapiens
Description: SANGER: Inhibition of human NCI-H2171 cell growth in a cell viability assay.

NB1 = assay: cells; assay type: functional, cell-based; conditions: Homo sapiens
Description: SANGER: Inhibition of human NB1 cell growth in a cell viability assay.

NCI-H719 = assay: cells; assay type: functional, cell-based; conditions: Homo sapiens
Description: SANGER: Inhibition of human NCI-H719 cell growth in a cell viability assay.

CPC-N = assay: cells; assay type: functional, cell-based; conditions: Homo sapiens
Description: SANGER: Inhibition of human CPC-N cell growth in a cell viability assay.

P31-FUJ = assay: cells; assay type: functional, cell-based; conditions: Homo sapiens
Description: SANGER: Inhibition of human P31-FUJ cell growth in a cell viability assay.

MDA-MB-453 = assay: cells; assay type: functional, cell-based; conditions: Homo sapiens
Description: SANGER: Inhibition of human MDA-MB-453 cell growth in a cell viability assay.

G-402 = assay: cells; assay type: functional, cell-based; conditions: Homo sapiens
Description: SANGER: Inhibition of human G-402 cell growth in a cell viability assay.

HSC-3 = assay: cells; assay type: functional, cell-based; conditions: Homo sapiens
Description: SANGER: Inhibition of human HSC-3 cell growth in a cell viability assay.

J82 = assay: cells; assay type: functional, cell-based; conditions: Homo sapiens
Description: SANGER: Inhibition of human J82 cell growth in a cell viability assay.

UMUC3 = assay: cells; assay type: functional, cell-based; conditions: Homo sapiens
Description: SANGER: Inhibition of human UM-UC-3 cell growth in a cell viability assay.

LCLC-97TM1 = assay: cells; assay type: functional, cell-based; conditions: Homo sapiens
Description: SANGER: Inhibition of human LCLC-97TM1 cell growth in a cell viability assay.

U-251 = assay: cells; assay type: functional, cell-based; conditions: Homo sapiens
Description: SANGER: Inhibition of human U251 cell growth in a cell viability assay.

MEL-JUSO = assay: cells; assay type: functional, cell-based; conditions: Homo sapiens
Description: SANGER: Inhibition of human MEL-JUSO cell growth in a cell viability assay.

CAKI-1 = assay: cells; assay type: functional, cell-based; conditions: Homo sapiens
Description: SANGER: Inhibition of human CAKI-1 cell growth in a cell viability assay.

RERF-LC-MS = assay: cells; assay type: functional, cell-based; conditions: Homo sapiens
Description: SANGER: Inhibition of human RERF-LC-MS cell growth in a cell viability assay.

SK-HEP1 = assay: cells; assay type: functional, cell-based, SK-HEP-1; conditions: Homo sapiens
Description: SANGER: Inhibition of human SK-HEP-1 cell growth in a cell viability assay.

NCI-H1693 = assay: cells; assay type: functional, cell-based; conditions: Homo sapiens
Description: SANGER: Inhibition of human NCI-H1693 cell growth in a cell viability assay.

HuP-T4 = assay: cells; assay type: functional, cell-based; conditions: Homo sapiens
Description: SANGER: Inhibition of human HuP-T4 cell growth in a cell viability assay.

MDA-MB-157 = assay: cells; assay type: functional, cell-based; conditions: Homo sapiens
Description: SANGER: Inhibition of human MDA-MB-157 cell growth in a cell viability assay.

D-542MG = assay: cells; assay type: functional, cell-based; conditions: Homo sapiens
Description: SANGER: Inhibition of human D-542MG cell growth in a cell viability assay.

A2058 = assay: cells; assay type: functional, cell-based; conditions: Homo sapiens
Description: SANGER: Inhibition of human A2058 cell growth in a cell viability assay.

C32 = assay: cells; assay type: functional, cell-based; conditions: Homo sapiens
Description: SANGER: Inhibition of human C32 cell growth in a cell viability assay.

EGI-1 = assay: cells; assay type: functional, cell-based; conditions: Homo sapiens
Description: SANGER: Inhibition of human EGI-1 cell growth in a cell viability assay.

KYSE-140 = assay: cells; assay type: functional, cell-based; conditions: Homo sapiens
Description: SANGER: Inhibition of human KYSE-140 cell growth in a cell viability assay.

NCI-H1993 = assay: cells; assay type: functional, cell-based; conditions: Homo sapiens
Description: SANGER: Inhibition of human NCI-H1993 cell growth in a cell viability assay.

OVCAR-3 = assay: cells; assay type: functional, cell-based; conditions: Homo sapiens
Description: SANGER: Inhibition of human OVCAR-3 cell growth in a cell viability assay.

Ca9-22 = assay: cells; assay type: functional, cell-based; conditions: Homo sapiens
Description: SANGER: Inhibition of human Ca9-22 cell growth in a cell viability assay.

GMS-10 = assay: cells; assay type: functional, cell-based; conditions: Homo sapiens
Description: SANGER: Inhibition of human GMS-10 cell growth in a cell viability assay.

LU-99A = assay: cells; assay type: functional, cell-based; conditions: Homo sapiens
Description: SANGER: Inhibition of human LU-99A cell growth in a cell viability assay.

H4 = assay: cells; assay type: functional, cell-based; conditions: Homo sapiens
Description: SANGER: Inhibition of human H4 cell growth in a cell viability assay.

BT-20 = assay: cells; assay type: functional, cell-based; conditions: Homo sapiens
Description: SANGER: Inhibition of human BT-20 cell growth in a cell viability assay.

NUGC-3 = assay: cells; assay type: functional, cell-based; conditions: Homo sapiens
Description: SANGER: Inhibition of human NUGC-3 cell growth in a cell viability assay.

M14 = assay: cells; assay type: functional, cell-based; conditions: Homo sapiens
Description: SANGER: Inhibition of human M14 cell growth in a cell viability assay.

BFTC-909 = assay: cells; assay type: functional, cell-based; conditions: Homo sapiens
Description: SANGER: Inhibition of human BFTC-909 cell growth in a cell viability assay.

KP-N-YN = assay: cells; assay type: functional, cell-based; conditions: Homo sapiens
Description: SANGER: Inhibition of human KP-N-YN cell growth in a cell viability assay.

AGS = assay: cells; assay type: functional, cell-based; conditions: Homo sapiens
Description: SANGER: Inhibition of human AGS cell growth in a cell viability assay.

TYK-nu = assay: cells; assay type: functional, cell-based; conditions: Homo sapiens
Description: SANGER: Inhibition of human TYK-nu cell growth in a cell viability assay.

NCI-H2030 = assay: cells; assay type: functional, cell-based; conditions: Homo sapiens
Description: SANGER: Inhibition of human NCI-H2030 cell growth in a cell viability assay.

OE19 = assay: cells; assay type: functional, cell-based; conditions: Homo sapiens
Description: SANGER: Inhibition of human OE19 cell growth in a cell viability assay.

NB12 = assay: cells; assay type: functional, cell-based; conditions: Homo sapiens
Description: SANGER: Inhibition of human NB12 cell growth in a cell viability assay.

COLO-680N = assay: cells; assay type: functional, cell-based; conditions: Homo sapiens
Description: SANGER: Inhibition of human COLO-680N cell growth in a cell viability assay.

OAW-42 = assay: cells; assay type: functional, cell-based; conditions: Homo sapiens
Description: SANGER: Inhibition of human OAW-42 cell growth in a cell viability assay.

NCI-H810 = assay: cells; assay type: functional, cell-based; conditions: Homo sapiens
Description: SANGER: Inhibition of human NCI-H810 cell growth in a cell viability assay.

YAPC = assay: cells; assay type: functional, cell-based; conditions: Homo sapiens
Description: SANGER: Inhibition of human YAPC cell growth in a cell viability assay.

RPMI-7951 = assay: cells; assay type: functional, cell-based; conditions: Homo sapiens
Description: SANGER: Inhibition of human RPMI-7951 cell growth in a cell viability assay.

Capan-2 = assay: cells; assay type: functional, cell-based; conditions: Homo sapiens
Description: SANGER: Inhibition of human Capan-2 cell growth in a cell viability assay.

KYSE-410 = assay: cells; assay type: functional, cell-based; conditions: Homo sapiens
Description: SANGER: Inhibition of human KYSE-410 cell growth in a cell viability assay.

## CCNc1cc(N[C@H]2CC[C@@H](O)CC2)nc(Nc2ccc3c(ccn3Cc3ccccc3)c2)n1
NCI-H64
  IC50: > 5.12 µM
CESS
  IC50: > 5.12 µM
K052
  IC50: > 5.12 µM
PF-382
  IC50: > 5.12 µM
TE-441-T
  IC50: > 5.12 µM
NCI-H2081
  IC50: > 5.12 µM
SK-MM-2
  IC50: > 5.12 µM
YT
  IC50: > 5.12 µM
SR
  IC50: > 5.12 µM
LU-165
  IC50: > 5.12 µM
JIYOYE
  IC50: > 5.12 µM
MDA-MB-134-VI
  IC50: > 5.12 µM
SNU-16
  IC50: > 5.12 µM
BL-41
  IC50: > 5.12 µM
DMS-153
  IC50: > 5.12 µM
NCI-H187
  IC50: > 5.12 µM
LC4-1
  IC50: > 5.12 µM
NCI-H2171
  IC50: > 5.12 µM
NB1
  IC50: > 5.12 µM
NCI-H719
  IC50: > 5.12 µM
CPC-N
  IC50: > 5.12 µM
P31-FUJ
  IC50: > 5.12 µM

## COc1cc(Nc2c(C#N)cnc3cc(OCCCN4CCN(C)CC4)c(OC)cc23)c(Cl)cc1Cl [BOSUTINIB]
MDA-MB-453
  IC50: > 2 µM
G-402
  IC50: > 2 µM
HSC-3
  IC50: 1.12 µM
J82
  IC50: > 2 µM
UMUC3
  IC50: > 2 µM
LCLC-97TM1
  IC50: > 2 µM
U-251
  IC50: > 2 µM
MEL-JUSO
  IC50: > 2 µM
CAKI-1
  IC50: > 2 µM
RERF-LC-MS
  IC50: > 2 µM
SK-HEP1
  IC50: > 2 µM
NCI-H1693
  IC50: 2 µM
HuP-T4
  IC50: > 2 µM
MDA-MB-157
  IC50: > 2 µM
D-542MG
  IC50: > 2 µM
A2058
  IC50: > 2 µM
C32
  IC50: > 2 µM
EGI-1
  IC50: > 2 µM
KYSE-140
  IC50: 1.76 µM
NCI-H1993
  IC50: > 2 µM
OVCAR-3
  IC50: > 2 µM
Ca9-22
  IC50: 1.56 µM
GMS-10
  IC50: > 2 µM
LU-99A
  IC50: > 2 µM
H4
  IC50: 1.24 µM
BT-20
  IC50: > 2 µM
NUGC-3
  IC50: 1.29 µM
M14
  IC50: > 2 µM
BFTC-909
  IC50: > 2 µM
KP-N-YN
  IC50: > 2 µM
AGS
  IC50: > 2 µM
TYK-nu
  IC50: > 2 µM
NCI-H2030
  IC50: > 2 µM
OE19
  IC50: > 2 µM
NB12
  IC50: > 2 µM
COLO-680N
  IC50: > 2 µM
OAW-42
  IC50: > 2 µM
NCI-H810
  IC50: > 2 µM
YAPC
  IC50: > 2 µM
RPMI-7951
  IC50: > 2 µM
Capan-2
  IC50: > 2 µM
KYSE-410
  IC50: > 2 µM

## C[C@]12O[C@H](C[C@]1(O)CO)n1c3ccccc3c3c4c(c5c6ccccc6n2c5c31)CNC4=O [LESTAURTINIB]
MDA-MB-453
  IC50: 1.91 µM
G-402
  IC50: 1.1 µM
HSC-3
  IC50: 0.0468 µM
J82
  IC50: > 2 µM
UMUC3
  IC50: 1.15 µM
LCLC-97TM1
  IC50: 0.427 µM
U-251
  IC50: > 2 µM
MEL-JUSO
  IC50: 0.503 µM
CAKI-1
  IC50: 0.334 µM
RERF-LC-MS
  IC50: 0.812 µM
SK-HEP1
  IC50: 0.0313 µM
NCI-H1693
  IC50: > 2 µM
HuP-T4
  IC50: 1.33 µM
MDA-MB-157
  IC50: 0.276 µM
D-542MG
  IC50: > 2 µM
A2058
  IC50: 0.245 µM
C32
  IC50: 0.182 µM
EGI-1
  IC50: 0.572 µM
KYSE-140
  IC50: 0.449 µM
NCI-H1993
  IC50: > 2 µM
OVCAR-3
  IC50: > 2 µM
Ca9-22
  IC50: 0.9 µM
GMS-10
  IC50: 0.463 µM
LU-99A
  IC50: 1.01 µM
H4
  IC50: 0.0135 µM
BT-20
  IC50: 1.65 µM
NUGC-3
  IC50: > 2 µM
M14
  IC50: 0.0506 µM
BFTC-909
  IC50: 0.249 µM
KP-N-YN
  IC50: 1.96 µM
AGS
  IC50: 0.0691 µM
TYK-nu
  IC50: 0.185 µM
NCI-H2030
  IC50: 1.32 µM
OE19
  IC50: > 2 µM
NB12
  IC50: 1.31 µM
COLO-680N
  IC50: > 2 µM
OAW-42
  IC50: 0.349 µM
NCI-H810
  IC50: 0.995 µM
YAPC
  IC50: > 2 µM
RPMI-7951
  IC50: 0.318 µM
Capan-2
  IC50: > 2 µM
KYSE-410
  IC50: 1.41 µM
